Reference: US20180064729A1, “Treatment of Pulmonary Disease” (Intercept Pharmaceuticals, Inc., priority 2012, published 2018)
Entries after “also recorded” stand apart in the source; their conditions may differ.

Legend:
Sprague-Dawley (SD) rats [1] = experiment: MCT-induced pulmonary hypertensive rat model: survival (Kaplan-Meier); assay type: in vivo; conditions: MCT-treated rats, study period 28 days
Procedure: (§1) Pulmonary hypertension was induced by subcutaneous injection of 60 mg/kg monocrotaline (MCT) (Sigma Chemicals, St. Louis, Mo., USA) dissolved in 0.5 N HCl solution. Briefly, male Sprague-Dawley (SD) rats, weighing between 200 to 250 g, were housed in climate-controlled conditions with a 12 hours light:12 hours dark cycle, with free access to chow and water. […]
During the study period, the animals were observed daily for mortality, and median survival time in each group was calculated with Kaplan-Meier analysis.

[2] = test system: lung mRNA of inflammation, endothelium-proliferative and NO-signaling genes; experiment: MCT-induced pulmonary hypertensive rat model: lung mRNA expression by qRT-PCR; assay type: in vivo
Procedure: (§2) Pulmonary hypertension was induced by subcutaneous injection of 60 mg/kg monocrotaline (MCT) (Sigma Chemicals, St. Louis, Mo., USA) dissolved in 0.5 N HCl solution. Briefly, male Sprague-Dawley (SD) rats, weighing between 200 to 250 g, were housed in climate-controlled conditions with a 12 hours light:12 hours dark cycle, with free access to chow and water. SD rats were randomly allocated to the following groups: • 1) SD rats left untreated and sacrificed after 7 (n=5) or 28 (n=5) days; • 2) SD rats receiving a single subcutaneous injection of vehicle MCT sacrificed after 7 days (n=5); • 3) SD rats receiving a single subcutaneous injection of vehicle MCT sacrificed after 28 days (n=10); • 4) SD rats receiving a single subcutaneous injection of MCT [60 mg/kg, n=5] sacrificed after 7 days; • 5) SD rats receiving single subcutaneous injection of MCT [60 mg/kg, n=15] sacrificed after 28 days; • 6) SD rats receiving single subcutaneous injection of MCT [60 mg/kg] and immediately treated with OCA (30 mg/kg, daily 5 days a week, by oral gavage, n=5) for 7 days]; • 7) SD rats receiving single subcutaneous injection of MCT [60 mg/kg] and immediately treated with OCA (30 mg/kg, daily 5 days a week, by oral gavage, n=10) for 28 days]; • 8) SD rats receiving single subcutaneous injection of MCT [60 mg/kg] and immediately treated with tadalafil (10 mg/kg/day, in drinking water, n=5) for 7 days]; • 9) SD rats receiving single subcutaneous injection of MCT [60 mg/kg] and immediately treated with tadalafil (10 mg/kg/day, in drinking water, n=10) for 28 days]; • 10) SD rats receiving single subcutaneous injection of MCT [60 mg/kg] and immediately treated with vehicle OCA (by oral gavage, n=5) for 7 days; • 11) SD rats receiving single subcutaneous injection of MCT [60 mg/kg] and immediately treated with vehicle OCA (by oral gavage, n=10) for 28 days.
mRNA expression analysis of genes involved in inflammation [interleukin 6 (IL-6), monocyte chemoattractant protein-1 (MCP-1/CCL2), cyclooxygenase-2], endothelium-proliferative factors (vascular endothelial growth factor (VEGF) and angiotensin-converting enzyme 2 (ACE2)), NO-signaling [endothelial nitric oxide synthase (eNOS), phosphodiesterase type 5 (PDES), cyclic guanylate cyclase subunits type 1a3 and 1b3, GC1a3, GC1b3, protein kinase G 1, PKG1], were performed. Isolation of RNA from lung, qRT-PCR was performed according to the fluorescent TaqMan methodology. PCR primers and probes specific for mRNA sequences of aforementioned target genes and of the reference gene 18S rRNA was purchased from Life Technologies (Paisley, UK).

Sprague-Dawley (SD) rats [3] = experiment: MCT-induced pulmonary hypertensive rat model: right ventricular hypertrophy index; assay type: in vivo; conditions: day 28; MCT 60 mg/kg s.c.; OCA 30 mg/kg oral gavage, tadalafil 10 mg/kg/day in drinking water
Procedure: as §1

[4] = test system: DSS (Dahl salt-sensitive) rat; experiment: Dahl salt-sensitive (DSS) rat high salt diet study; assay type: in vivo
From the text: The rodent model for salt-sensitive hypertension was a DSS (Dahl salt-sensitive) rat (e.g., Rapp). […] Specifically, the rodent models used for the study were male 4-week old DSS rats (e.g., SS/JrHsd) from Harlan Laboratories. The normal diet of the DSS rats was 0.49% NaCl and the high salt diet was 8% NaCl (e.g., Teklad Custom Research Diet). The rats were divided into four groups (herein referred to as DSS study rats): • Group 1; Normal salt diet (1% Methylcellulose) (N=6) • Group 2; High-salt diet (Vehicle; 1% MC) (N=9) • Group 3; High-salt diet (6ECDCA 10mg/kg/day) (N=6) • Group 4; High-salt diet (6ECDCA 30mg/kg/day) (N=9)
The following analyses were carried out: ADMA and NO levels in serum and urine and tissues (e.g., liver, muscle and kidney), blood pressure and heart rate, fasting blood glucose and insulin (HOMA-IR), ipGTT (IR-index), and urinary protein and creatinine. Additional studies such as electrolytes (Na+), histological analysis and TGFbeta expression in kidney, DDAH expression and activity in liver, skeletal muscle and kidney, and Akt-phosphorylation level in liver, skeletal muscle and kidney can also be carried out.
6ECDCA was administered orally daily for 6-weeks. Blood and urine collections were performed at week 0 and week 6 and analyzed by methods known in the art. Blood pressure measurement was performed at week 0, 1, 2, 4 and 6 by tail cuff devices, which was performed on conscious models and was non-invasive. The blood pressure was also obtained via catheter, which was performed when the model was sacrificed. The glucose challenge test was performed at week 5. Renal function was analyzed by measuring the urinary volume, protein and creatinine in a 24 h-urine sample. Histological analysis was performed using the Masson&Trichrome staining. Insulin resistance was analyzed using the ipGTT test and the HOMA/IR index. The ADMA and NO levels were detected in blood concentration and urinary excretion (FIG. 1).

small pulmonary arteries = experiment: MCT-induced pulmonary hypertensive rat model: pulmonary artery wall thickness; assay type: in vivo; conditions: for MCT-induced increase in wall thickness (WT): OCA 30 mg/kg oral, p<0.00001; for wall thickness (WT) in small pulmonary arteries: MCT 60 mg/kg s.c. alone
Procedure: as §2
Pulmonary vascular remodeling was evaluated by determining wall thickness (WT). Lungs were fixed in 10% buffered formalin and embedded in paraffin, then sectioned at a thickness of 5 μm and stained with hematoxylin-eosin. Ten pulmonary arteries were examined for structural integrity using a morphometric image analysis system independently by two pathologists who were blinded to animal grouping. WT, vessel diameter (ED), were determined. WT(%)=(2×WT/ED)×100%. More than 50 images of pulmonary arterioles (25 to 100 μm diameters) from at least three tissue sections at a magnification of ×20 were captured using amicroscopic digital camera and analyzed using an image analysisprogram (Fiji-win32). The external diameter (D) and medial thickness oneither side (M1 and M2) were measured along the shortest diameter. The medial wall thickness was expressed as follows: % wall thickness=[(M1+M2)/2/D]×100.

[5] = test system: murine lung fibroblast cell line (ATCC number CCL-206); experiment: Col I and CXCL12 expression in stimulated lung fibroblasts (qRT-PCR, ELISA, Sircol); assay type: cell-based; conditions: 24 hours
Procedure: FXR activation reduced the production of collagen I and […] by resident fibroblasts. Specifically, after a 24 hour period of starving, cells from the murine lung fibroblast cell line (ATCC number CCL-206) were stimulated with or without TGFβ1 (10 ng/ml) and 6ECDCA (10 μM) for 24 hours and then the FXR, SHP and Col I gene expression was analyzed by qRT-PCR. After a 24 hours period of starving, cells from the murine lung fibroblast cell line (ATCC number CCL-206) were stimulated with or without TNFα (10 ng/ml) and 6ECDCA (10 μM) for 24 hours and then the FXR, SHP and CXCL12 gene expression was analyzed by qRT-PCR.
The downregulation of Col I and CXCL12 induced by 6ECDCA was FXR-mediated. After an overnight period of starving, murine lung fibroblast cell line (ATCC number CCL-206) was stimulated with or without TGFβ1 (10 ng/ml) and 6ECDCA (1 μM) for 24 hours—with and without block of the FXR by siRNA—and then the FXR, SHP, Col I and CXCL12 gene expression was analyzed by qRT-PCR. CXCL12 and Col I secretion in the supernatants was analyzed by ELISA and the Sircol collagen assay, respectively.
The downreguation of Col I and CXCL12 induced by 6ECDCA was SHP-mediated. Specifically, transfection of pulmonary fibroblasts with vector carrying the HA-SHP chimera was carried out to induce a SHP overexpression (WB analysis of the HA-SHP expression). Col I and CXCL12 expression (by qRT-PCR) was analyzed at baseline and after stimulation with TGFβ1. SHP overexpression was sufficient to down-regulate the Col I and CXCL12 expression, basically and after stimulation with TGFβ1.
After an overnight period of starving, murine lung fibroblast cell line (ATCC number CCL-206) were stimulated with/without TGFβ1 (10 ng/ml) and 6ECDCA (1 μM) for 24 hours—with and without block of the SHP by siRNA—and then the FXR, SHP, Col I and CXCL12 gene expression was analyzed by qRT-PCR. CXCL12 and Col I secretion in the supernatants was analyzed by ELISA and the Sircol collagen assay, respectively.

[6] = test system: C57B1/6 wild-type and FXR−/− mice; experiment: murine bleomycin-induced pulmonary fibrosis model; assay type: in vivo; conditions: bleomycin day 0; 5 mg/kg daily; 22 days
Procedure: The murine model of bleomycin-induced pulmunary fibrosis was induced in C57B1/6 wild-type and FXR^−/− mice (females, 6-8 weeks old). Groups of treatment included: • WT mice: A—saline (day 0); B—bleomycin (day 0); C—bleomycin (day 0)- • Compound 1 (also referred to as 6ECDCA) (5 mg/kg, daily) • FXR^−/− mice: D—saline (day 0); E—bleomycin (day 0); F—bleomycin (day 0) • Compound 1 (also referred to as 6ECDCA) (5 mg/kg, daily).
After 22 days, the mice were sacrified and the subsequent analyses were performed: (1) H&E and […] staining on lung sections; (2) Quantification of collagen I into the lung by qRT-PCR and Sircol collagen assay; (3) FXR, SHP and CXCL12 mRNA quantification by qRT-PCR; and (4) CXCL12 protein quantification by ELISA on lung homogenates.

`CC[C@H]1[C@@H](O)[C@@H]2[C@H](CC[C@]3(C)[C@@H]([C@H](C)CCC(=O)O)CC[C@@H]23)[C@@]2(C)CC[C@@H](O)C[C@@H]12` [Compound 1, 3α,7α-dihydroxy-6α-ethyl-5β-cholanic acid] was tested, and the mortality rate (Sprague-Dawley (SD) rats [1]) was 13.2%, the “PKG1 mRNA expression” value ([2]; 28-day treatment, p=0.01 vs. MCT) was “significantly upregulates” and the “GC1a3 mRNA expression” value ([2]; after 7 days of OCA dosing) was “significant increase”. For the same compound, the “PDES mRNA expression” value ([2]; after 7 days of OCA dosing) was “significant increase”, the “PKG1 mRNA expression” value ([2]; after 7 days of OCA dosing) was “significant increase” and the “MCT-induced MCP-1 expression” value ([2]; day 7, lung) was “significantly reduced”. The “IL-6 mRNA expression” value ([2]; day 28, lung) was “significantly reduced”, the “MCT-induced MCP-1 expression” value ([2]; day 28, lung) was “significantly reduced” and the “VEGF mRNA expression” value ([2]; day 28, p=0.001 vs. MCT) was “significantly upregulate”. For the same compound, the “ACE2 mRNA expression” value ([2]; day 28, p=0.038 vs. MCT) was “significantly upregulate”, the “right ventricular hypertrophy index (RVH), RV/(LV+S)” value (Sprague-Dawley (SD) rats [3]) was “completely normalized RVH” and the “ADMA levels in serum and urine” value [4] was “did not reduce ADMA”. The “albuminuria induced by high salt diet” value [4] was “reduced albuminuria”, the “IR-index reduction compared to the vehicle” value ([4]; 10 mg/kg) was 38% and the body weight ([4]; 10 mg/kg and 30 mg/kg, seven week study) was “did not affect the body weight”. For the same compound, the “IR-index reduction compared to the vehicle” value ([4]; 30 mg/kg) was 21%, the “lung weight (pulmonary congestion)” value ([4]; 30 mg/kg) was “reduced lung weight” and the renal protection ([4]; 30 mg/kg) was “showed renal protection”. For the same compound, the heart rate ([4]; 10 and 30 mg/kg/day oral) was “did not affect heart rate”, the blood pressure ([4]; 10 and 30 mg/kg/day oral, listed as 6ECDCA) was “did not affect heart rate blood pressure or reduce blood pressure; also recorded: did not reduce blood pressure” and the glucose levels ([4]; GTT) was “trended lower”. For the same compound, the insulin levels ([4]; GTT) was “trended lower”, the “insulin sensitivity (Insulin Resistance-Index)” value ([4]; GTT at week 5) was “reversed insulin resistance” and the “MCT-induced increase in wall thickness (WT)” value (small pulmonary arteries; day 7) was “markedly reduced”. The “MCT-induced increase in wall thickness (WT)” value (small pulmonary arteries; day 28) was “markedly reduced”, the “downregulation of Col I and CXCL12, dependence on SHP” value ([5]; TGFβ1 10 ng/ml, 6ECDCA 1 μM, SHP overexpression / block of SHP by siRNA) was “SHP-mediated” and the “downregulation of Col I and CXCL12, dependence on FXR” value ([5]; TGFβ1 10 ng/ml, 6ECDCA 1 μM, with and without block of FXR by siRNA) was “FXR-mediated”. For the same compound, the “production of collagen I by resident fibroblasts (Col I gene expression)” value ([5]; TGFβ1 10 ng/ml, 6ECDCA 10 μM) was “reduced”, the “production of CXCR12 by resident fibroblasts (CXCL12 gene expression)” value ([5]; TNFα 10 ng/ml, 6ECDCA 10 μM) was “reduced” and the pulmonary fibrosis [6] was “ameliorates the pulmonary fibrosis”.
`C[C@H]1C(=O)O[C@@H]2CCN3CC=C(COC(=O)[C@](C)(O)[C@]1(C)O)[C@H]23` [MCT, monocrotaline, reference compound] was tested, and the mortality rate (Sprague-Dawley (SD) rats [1]) was 24%, the “wall thickness (WT) in small pulmonary arteries” value (small pulmonary arteries; day 7, control 19±0.7) was 33±0.8% and the “wall thickness (WT) in small pulmonary arteries” value (small pulmonary arteries; day 28, control 16.8±0.8%) was 32.6±0.7%.
